“And” between values parts separate entries of the source, which are not always exact repeats. Equal values may be shown once. After the bases stand the sugars from the 5' end (letter, count) and the backbone: PS all phosphorothioate, else s phosphorothioate and o phosphodiester by linkage. Methylation of C is not given here. k = constrained ethyl (cEt); d = 2'-deoxy (DNA)
What follows are sequences tested against MALAT1. Conditions: ASO, A431, 0.005 µM.

In order of falling target mRNA inhibition:
1. CAGTCCTTTTAGTAGC (sugars k3 d10 k3, PS)  57%
2. CCACTGGTGAATTCAA (sugars k3 d10 k3, PS)  55%
3. CATTTTGCCCTTAGCT (sugars k3 d10 k3, PS)  54%
4. CCACGAACTGCTGCTT (sugars k3 d10 k3, PS)  54%
5. CCTGTGGTGGTCTGAT (sugars k3 d10 k3, PS)  54%
6. ATTGGAGATCAGCTTC (sugars k3 d10 k3, PS)  52%
7. CGCACTGGCTCCTGGA (sugars k3 d10 k3, PS)  49%
8. ATTCTTTTCTTCGCCT (sugars k3 d10 k3, PS)  48%
9. ATTTACTTGCCAACAG (sugars k3 d10 k3, PS)  47%
10. CCAGCAAAATGTACTC (sugars k3 d10 k3, PS)  46%
11. CAAGTTACATGTTCCC (sugars k3 d10 k3, PS)  42%
12. CAGGATCATTAAGCCA (sugars k3 d10 k3, PS)  42%
13. CCAGCATTACAGTTCT (sugars k3 d10 k3, PS)  42%
14. CCAATGGACATCTCTT (sugars k3 d10 k3, PS)  40%
15. ATCTTAACTCAAAGTC (sugars k3 d10 k3, PS)  39%
16. CCGACCTCACGGATTT (sugars k3 d10 k3, PS)  39%
17. ATGGACATTGCCTCTT (sugars k3 d10 k3, PS)  37%
18. ATTTTAAGGTTGCATC (sugars k3 d10 k3, PS)  37%
19. CACCTTGAGTCATTTG (sugars k3 d10 k3, PS)  37%
20. CCAAATTGCACTCGCT (sugars k3 d10 k3, PS)  36%
21. CATAGTTCAACCCACC (sugars k3 d10 k3, PS)  35%
22. CAAGATTCATGAGTAT (sugars k3 d10 k3, PS)  34%
23. CATTAAAGAGTGTTCG (sugars k3 d10 k3, PS)  34%
24. CCACTTACTGGTTTAA (sugars k3 d10 k3, PS)  33%
25. CCTAGCTTCACCACCA (sugars k3 d10 k3, PS)  33%
26. CCTTATTTAGAGGGCC (sugars k3 d10 k3, PS)  33%
27. CAAACGAAACATTGGC (sugars k3 d10 k3, PS)  31%
28. CAGTACGAAACTCCCC (sugars k3 d10 k3, PS)  30%
29. CCGTAACAGGCCACTG (sugars k3 d10 k3, PS)  30%
30. ATGGCGGACTTTCTCC (sugars k3 d10 k3, PS)  29%
31. CAATATCTTAGTAACC (sugars k3 d10 k3, PS)  29%
32. CCCCCAACTGCTTGCA (sugars k3 d10 k3, PS)  29%
33. CAATTAATGCTAGTCC (sugars k3 d10 k3, PS)  28%
34. CACCTTCCGCCGCCTC (sugars k3 d10 k3, PS)  28%
35. CCACCAATCCCAACCG (sugars k3 d10 k3, PS)  26%
36. CCCCAACTAAACATAC (sugars k3 d10 k3, PS)  26%
37. CATATTTAACTTCCCC (sugars k3 d10 k3, PS)  25%
38. CCCTTTACACCTCAGT (sugars k3 d10 k3, PS)  25%
39. CCGCCGCCTTTGTGAG (sugars k3 d10 k3, PS)  25%
40. ATTCAATACTATTGTC (sugars k3 d10 k3, PS)  24%
41. CACTACCATATCCAAA (sugars k3 d10 k3, PS)  23%
42. CCCAATGGAGGTATGA (sugars k3 d10 k3, PS)  23%
43. CCCCGGAACTTTTAAA (sugars k3 d10 k3, PS)  23%
44. CCTTTTCTAACATAGT (sugars k3 d10 k3, PS)  23%
45. CGCAATTCTCCCTGCG (sugars k3 d10 k3, PS)  23%
46. ATCTTCACCACGAACT (sugars k3 d10 k3, PS)  22%
47. ATTGTTTCATCCTACC (sugars k3 d10 k3, PS)  22%
48. CCCTGTTAAGACCATC (sugars k3 d10 k3, PS)  21%
49. CACCGGAATTCGATCA (sugars k3 d10 k3, PS)  20%
50. CACCTTCGGTTTAATC (sugars k3 d10 k3, PS)  20%
51. CATGGAAAGCGAGTTC (sugars k3 d10 k3, PS)  20%
52. CCTGCGACTTGCTCCC (sugars k3 d10 k3, PS)  20%
53. CACCACGAACTGCTGC (sugars k3 d10 k3, PS)  19%
54. CAACACCCGGAAATCG (sugars k3 d10 k3, PS)  18%
55. CGAGTTCAAGTGGCCT (sugars k3 d10 k3, PS)  18%
56. ATTAAAGTGTGATAGT (sugars k3 d10 k3, PS)  17%
57. ATTATACATCAAGGAT (sugars k3 d10 k3, PS)  17%
58. ATTCAACTGGAAGCTC (sugars k3 d10 k3, PS)  17%
59. CATCAGAAGAAATCCC (sugars k3 d10 k3, PS)  17%
60. CCACACACTACCATAT (sugars k3 d10 k3, PS)  17%
61. CCATCATACTGCCAGG (sugars k3 d10 k3, PS)  17%
62. CACAGGAACAAGTCCT (sugars k3 d10 k3, PS)  16%
63. ATGACCCTACTGAAGA (sugars k3 d10 k3, PS)  15%
64. ATGACGCAATTCTCCC (sugars k3 d10 k3, PS)  15%
65. ATGGTAGATTCCGTAA (sugars k3 d10 k3, PS)  14%
66. CAGACCTGAAGTCAAG (sugars k3 d10 k3, PS)  14%
67. CCCCCCAAGATTGCCC (sugars k3 d10 k3, PS)  14%
68. CCGCACAGCTCGGGCG (sugars k3 d10 k3, PS)  14%
69. ATGAAATGCCTCTGCA (sugars k3 d10 k3, PS)  13%
70. CACACCCAGAAGTGTT (sugars k3 d10 k3, PS)  13%
71. CCAAAGACCTCGACAC (sugars k3 d10 k3, PS)  13%
72. CCAGTAGGCCAGACCA (sugars k3 d10 k3, PS)  13%
73. CCCTACTGAAGAGCAT (sugars k3 d10 k3, PS)  13%
74. CCGGAACTTTTAAAAT (sugars k3 d10 k3, PS)  13%
75. CCTTTACACCTCAGTA (sugars k3 d10 k3, PS)  13%
76. CATTTCTCCAATGGAC (sugars k3 d10 k3, PS)  12%
77. CCTAACATGCAATACT (sugars k3 d10 k3, PS)  12%
78. CCTTCGGTGCCTTTAG (sugars k3 d10 k3, PS)  12%
79. CGCCAACACAGTTTGC (sugars k3 d10 k3, PS)  12%
80. CAAACTTGCCATCTAC (sugars k3 d10 k3, PS)  11%
81. CACTTATCCCTAACAT (sugars k3 d10 k3, PS)  10%
82. CCAAGACAGCCACACG (sugars k3 d10 k3, PS)  10%
83. CCATGGTTGTCCTACT (sugars k3 d10 k3, PS)  10%
84. CGAAGACACAGAGACC (sugars k3 d10 k3, PS)  10%
85. ATTTATAGACGGAGAA (sugars k3 d10 k3, PS)  9%
86. CAGTCCTAGCTTCATC (sugars k3 d10 k3, PS)  9%
87. CCCAACTGCTTGCAGT (sugars k3 d10 k3, PS)  9%
88. CAGGCGAGCTGAGGCT (sugars k3 d10 k3, PS)  7%
89. CAAACTACACATGCAG (sugars k3 d10 k3, PS)  6%
90. CCGTTGGCTGCCAGTG (sugars k3 d10 k3, PS)  6%
91. CCTATCTTCACCACGA (sugars k3 d10 k3, PS)  6%
92. ATTCCCACCCAAAAGC (sugars k3 d10 k3, PS)  5%
93. CCCGCCTCAGTTACAC (sugars k3 d10 k3, PS)  4%
94. ATGGAACTTGAATGCA (sugars k3 d10 k3, PS)  1%
95. CCTGAAGTCAAGACAA (sugars k3 d10 k3, PS)  0%
96. CACCCAGAAGTGTTTA (sugars k3 d10 k3, PS)  -4%
97. CATCAAGGATGTATAT (sugars k3 d10 k3, PS)  -4%
98. CCACAGGAACAAGTCC (sugars k3 d10 k3, PS)  -5%
99. CAATTTATAGACCCCT (sugars k3 d10 k3, PS)  -6%
100. CCCAAGATTGCCCCAA (sugars k3 d10 k3, PS)  -7%
101. ATGCCTACCGCACAGC (sugars k3 d10 k3, PS)  -8%
102. ATTCCTTATTTAGAGG (sugars k3 d10 k3, PS)  -11%
103. CAATTTAGAGCTTCTC (sugars k3 d10 k3, PS)  -12%
104. CCCCCGGAACTTTTAA (sugars k3 d10 k3, PS)  -12%
105. CACAACAATTTAGAGC (sugars k3 d10 k3, PS)  -17%
106. CCTTTTAAAGTAGACC (sugars k3 d10 k3, PS)  -22%
107. CACCTTCCGCCGCCTT (sugars k3 d10 k3, PS)  -25%
108. CAGCTTATGGAACTTG (sugars k3 d10 k3, PS)  -33%

ATTGTCTCAATTTGGC (sugars k3 d10 k3, PS) was tested, and the target mRNA inhibition was 63% and 84%.
For CAAATCCTGATCTGGT (sugars k3 d10 k3, PS), the target mRNA inhibition was 24% and 21%.
CACTTTCCTTGCCCAA (sugars k3 d10 k3, PS) was tested, and the target mRNA inhibition was 69% and 61%.
With CAGGTCATCTATTCAC (sugars k3 d10 k3, PS) the target mRNA inhibition was 51% and 72%.
In the case of CATTCTAATAGCAGCG (sugars k3 d10 k3, PS), the target mRNA inhibition is reported as 51% and 68%.
In the case of CCAGGATTAATGTAGT (sugars k3 d10 k3, PS), the target mRNA inhibition is reported as 71% and 55%.

From the OligoGym collection
